Values of other authors, collected in PubChem BioAssay AID1259409 (Chemical Carcinogenesis Research Information System (CCRIS), 2018).

Tested on: rodent chemically induced tumor inhibition, incidence and multiplicity
Experiment: CCRIS tumor inhibitor studies
Conditions: Route [Inhibitor]: ORAL, Species: RAT, Promoter: NONE USED

CCNC(=O)/C=C(C)/C=C/C=C(C)/C=C/c1c(C)cc(OC)c(C)c1C
tumour outcome (control, treated, inhibition, significance) (Carcinogen: N,N-DIMETHYLNITROSAMINE, 62-75-9, Dose [Inhibitor]: 60 MG/KG OF DIET DAILY FOR 26 WK STARTING 2 D AFTER CARCINOGEN TREATMENT AT 6 WK OF AGE AND THEN OBSERVED UNTIL DEATH (S, Strain/Sex: WISTAR/FEMALE, Target Tissue: Type of Lesion: KIDNEY: EPITHELIAL TUMOR, Dose [Carcinogen]: 40 MG/KG BW ONCE): 13/27 (48%), 21/35 (60%), -25%, not significant | tumour outcome (control, treated, inhibition, significance) (Carcinogen: N,N-DIMETHYLNITROSAMINE, 62-75-9, Dose [Inhibitor]: 60 MG/KG OF DIET DAILY FOR 26 WK STARTING 2 D AFTER CARCINOGEN TREATMENT AT 6 WK OF AGE AND THEN OBSERVED UNTIL DEATH (S, Strain/Sex: WISTAR/FEMALE, Target Tissue: Type of Lesion: KIDNEY: MESENCHYMAL TUMOR, Dose [Carcinogen]: 40 MG/KG BW ONCE): 22/27 (82%), 26/35 (74%), 10%, not significant | tumour outcome (control, treated, inhibition, significance) (Carcinogen: N-METHYL-N-NITROSOUREA, 684-93-5, Dose [Inhibitor]: 60 MG/KG OF DIET DAILY STARTING 5 D AFTER FINAL INSTILLATION OF CARCINOGEN AND CONTINUING THROUGH END OF STUDY (STUDY DU, Strain/Sex: F344/MALE, Target Tissue: Type of Lesion: COLON: INVASIVE TUBULOPAPILLARY ADENOCARCINOMA, Dose [Carcinogen]: 0.5 MG 2/WK FOR 8 WK): 33%, 19%, 42%, not significant | tumour outcome (control, treated, inhibition, significance) (Carcinogen: N-METHYL-N-NITROSOUREA, 684-93-5, Dose [Inhibitor]: 60 MG/KG OF DIET DAILY STARTING 5 D AFTER FINAL INSTILLATION OF CARCINOGEN AND CONTINUING THROUGH END OF STUDY (STUDY DU, Strain/Sex: F344/MALE, Target Tissue: Type of Lesion: COLON: INVASIVE TUBULOPAPILLARY ADENOCARCINOMA, Dose [Carcinogen]: 1 MG 2/WK FOR 8 WK): 80%, 85%, -6%, not significant | tumour outcome (control, treated, inhibition, significance) (Carcinogen: N-METHYL-N-NITROSOUREA, 684-93-5, Dose [Inhibitor]: 60 MG/KG OF DIET DAILY STARTING 5 D AFTER FINAL INSTILLATION OF CARCINOGEN AND CONTINUING THROUGH END OF STUDY (STUDY DU, Strain/Sex: F344/MALE, Target Tissue: Type of Lesion: COLON: INVASIVE TUBULOPAPILLARY ADENOCARCINOMA, Dose [Carcinogen]: 2 MG 2/WK FOR 8 WK): 95%, 100%, -5%, not significant
